Values after ≈ are worked out from the molar mass of the structure shown. Like-named read-outs stand apart in the source and are kept apart here.
Experiments:
[1] = test system: Mycobacterium tuberculosis Mtb H37Rv strain; test: Resazurin microtiter assay (REMA), standard strain
Method: MIC was measured by using a resazurin microtiter assay (REMA). Briefly, 100 μl of 7H9 liquid medium was added to each well of a 96-well microtiter plate, and two-fold serial dilutions of antibiotics were directly added to each well. Plates were covered and incubated for 5 days at 37° C. Resazurin (0.01% (w/v)) was added to each well and the plates were incubated overnight. Fluorescence intensity was measured by using a SpectraMax M3 Multi-Mode Microplate Reader (Molecular Devices, CA, USA) (ex. 560/em. 590 nm).

M. abscessus strain = test: Mouse non-tuberculous Mycobacterium infection model, viable cells in lung tissue; format: in vivo; conditions: mice, nasal infection 1×10^7 CFU M. abscessus; 100 mg/kg oral for 5 days from day 3; sacrifice day 7; vs negative control, p<0.001
Method: As described in Example 2-2, 57BL/6 mice were nasally infected with 1×10^7/CFU of M. abscessus strain. From the 3rd day, arenicolide A was orally administered at a dose of 100 mg/body weight kg for 5 days. As a negative control, 2.5% (v/v) DMSO and 2.5% (v/v) ethanol were administered. Mice were sacrificed on day 7 from the day of infection. The number of viable tubercle bacilli in the lung tissue was investigated, and the results are shown in FIG. 3 (each, n=6, ***: p<0.001).

[2] = test system: M. tuberculosis mc2 6230 strain; test: Resazurin microtiter assay (REMA), dose-response curve; format: cell-based; conditions: Mycobacterium tuberculosis, MC26230STRAIN, 120 h, M. tuberculosis mc2 6230, 7H9 liquid medium, 5 days at 37° C.
[3] = test system: BCG (bacillus Calmette-Guerin) strain; format: in vivo, Mycobacterium bovis; conditions: mice, nasal infection 1×10^6 CFU BCG; 100 mg/kg oral for 6 days from day 4; sacrifice day 10; vs negative control
[4] = test system: Mycobacterium tuberculosis (Mtb); test: Mouse tuberculosis infection model, viable Mycobacterium tuberculosis in lung tissue; format: in vivo; conditions: C57BL/6 mice, nasal infection 2×10^4 CFU; 100 mg/kg oral for 6 days from day 4; sacrifice day 10; vs PBS negative control, p<0.001
Method: C57BL/6 mice (n=16) were prepared to investigate the anti-tuberculous activity of arenicolide A. Mice were nasally infected with 2×10^4/CFU of Mycobacterium tuberculosis (Mtb), and the mice were randomly divided into two groups (each, n=8). From the 4th day, arenicolide A was orally administered at a dose of 100 mg/body weight kg for 6 days. Phosphate-buffered saline (PBS) was administered as a negative control. Mice were sacrificed on day 10 from the day of infection (FIG. 2A).

M. tuberculosis = test: Resazurin microtiter MIC, arenicolide A and ethambutol alone and combined; format: cell-based; conditions: Mycobacterium tuberculosis, 120 h

In the case of `CCC[C@H](O)[C@@H](OC)[C@H]1O[C@]1(C)[C@@H](O)C/C=C/[C@@H]1OC(=O)/C=C/C=C/[C@@H](OC)[C@H](O)/C=C/C(C)=C/[C@@H](C)CCC[C@@H](OC)C(O)/C=C/C(C)=C/[C@@H](C)[C@H](O)[C@H]1OC` (some centres unmarked) [arenicolide A], the MIC50 [1] is reported as ~6.9 µM (≈ 5.55 µg/mL), the “number of viable cells in the lung tissue” value (M. abscessus strain) is reported as “significantly decreased” and the MIC50 [2] is reported as ~24.6 µM (≈ 19.8 µg/mL). The “inhibitory activity against BCG bacteria (viable cells in lung tissue)” value [3] was “effective inhibitory activity”, the “number of viable Mycobacterium tuberculosis in the lung tissue” value [4] was “significantly reduced” and the MIC (M. tuberculosis) was 0.78 µM.
For `CC[C@@H](CO)NCCN[C@@H](CC)CO` [ethambutol, reference compound], the MIC (M. tuberculosis; administered alone, Middlebrook 7H9 with ADC, 5 days at 37° C., resazurin, read-out: MIC) was 3.2 µM.
For `CCC[C@@H]1O[C@@](C)([C@@H](O)C/C=C/[C@@H]2OC(=O)/C=C/C=C/[C@@H](OC)[C@H](O)/C=C/C(C)=C/C(C)CCC[C@@H](OC)[C@H](O)/C=C/C(C)=C/[C@@H](C)[C@H](O)[C@H]2OC)[C@H](O)[C@@H]1OC` (some centres unmarked) [arenicolide C], the “inhibitory activity against BCG bacteria (viable cells in lung tissue)” value [3] was “effective inhibitory activity”.
